The subject of data set [1] is primary culture of human keratinocytes (HEKA). Nature of the data set: MTT cytotoxicity test on keratinocytes. The settings on record: positive control, 0.5 mg/ml SDS. The data set is classed as cell-based. From the text: (§1) For this purpose the cell viability test using MTT (3-[4,5-dimethylthiazol-2-yl]-2,5-diphenyl tetrazolium bromide) [Mossman 1993] a colourimetric reagent, by means of which it is possible to distinguish between living, damaged or dead cells, being thus predictive of the safety of use of test substances, even “in vivo”, has been selected.
(§2) The following have been used: • human fibroblasts, Detroit 551 ATCC CCL III from LGC Promochem (Milan, Italy); • primary culture of human keratinocytes (HEKA), Cascade Biologics, cat.-005-5c.
(§3) In the study in question, CA has been previously dissolved and brought into contact with the selected cell cultures in such a manner as to directly reach the desired concentrations, i.e.: […]
(§4) As already mentioned, the key reagent is MTT, a yellow-coloured substance in aqueous solution which, when acted-on by the mitochondrial dehydrogenases present in viable cells, is transformed into purple crystals, insoluble in water, but soluble in acidified isopropanol. The absorbance of the resulting purple solution at […] is used as an indicator of the level of cytotoxicity of the substances under test.
(§5) In operational terms, the key reagent is prepared by adding 15 mg of MTT to 30 ml of culture medium. […] The plates are shaken for 20-30 minutes until a homogenous solution is formed, the absorbance of which is then read at […] with a background reading at 670 nm. […]
(Formazan colour is commonly taken as a measure of viable cells.)

The test system of data set [2] is Human fibroblasts, Detroit 551 ATCC CCL III. Nature of the data set: MTT cytotoxicity test on fibroblasts. The conditions noted are these: positive control, 0.5 mg/ml SDS. The data set is classed as cell-based.
Excerpt: as §1, §2, §3, §4, §5

In another data set the test system is mouse skin fibroblasts. The conditions noted are these: addition of HA to primary cultures; cited from earlier work.
For data set [3] the following is noted: exogenous hyaluronic acid, non cross-linked; cited from earlier work.
Data set [4] relates to extracellular matrix metalloproteases. The settings on record: HA 1 mg/ml; cited from earlier work.
The subject of data set [5] is Human fibroblasts, Detroit 551 ATCC CCL III. Nature of the data set: Stimulation of collagen synthesis in human fibroblast cultures (Sircol assay). Format: cell-based. The settings on record: 24 h. From the text: The scope of the test has been the evaluation and the comparison of the potential stimulation exerted by the test substances on the expression of collagen and elastin in “in vitro” cultures of skin-derived cells, such as fibroblasts. The test in question, even though conducted “in vitro”, can be considered to be predictive of the effects of use of the same substances “in vivo”. […] The samples have been dissolved directly in the culture medium. Each sample has been tested in duplicate and the experiments have been repeated twice. The parameters of interest have been determined after 24 hours on separate plates. Untreated cell cultures have been used as controls. A commercially available kit (Sircol™, biodye science) which uses the capacity of the stain Sirius Red to interact with the basic side chains of the aminoacids present in collagen itself, has been used for collagen assays. De novo collagen synthesis has been evaluated in the culture medium following treatment with the test substances, following the protocol provided with the kit, and by using the calibration curve obtained employing the collagen standard contained in turn in the kit. Evaluation of the effects of the substances tested, at the various concentrations, on fibroblast cultures, has been expressed as the absolute and percent increase or decrease of collagen and elastin expression, with respect to the corresponding control culture, after 24 hours of incubation. The percentage difference increase or decrease of the effects exerted by CA and NAG, at corresponding concentrations, have then been calculated, with consequent evaluation of their potential statistical significance by means of the test Student “t” test.

Data set [6] shares this test system. Nature of the data set: Stimulation of HA synthesis in human fibroblast cultures (EIA HA assay). The data set is classed as cell-based. The conditions noted are these: 48 h. From the text:
The test has been conducted in two stages, i.e.: • stage A: in which the stimulation of HA expression by COMBI has been evaluated while maintaining the concentration constant and varying the reciprocal quantities of its components. The concentration used has been selected so as to enable comparison with the results derived from stage B; • stage B: in which the effect of CA on HA expression has been evaluated by varying its concentration and in comparison with doses consistent with its components. […] Human fibroblasts have been grown in suitable growth medium (Eagle's minimal essential medium) supplemented with 10% foetal calf serum (FCS), 1 mM sodium pyruvate, 2 mM glutamine, non-essential aminoacids and 50 μg/ml glutamycin. […] After 48 hours, the supernatant has been removed and used for the determination of the parameters of interest. The test has been conducted in duplicate and untreated cell cultures have been used as controls. HA has been assayed (dosed) by means of an immuno-enzymatic test using a commercially available kit (EIA, Corgenix). De novo HA synthesis has been evaluated in the culture medium following treatment with the test substances, according to the protocol provided with the test, and against the calibration curve obtained using the HA standard contained in the kit. […] • evaluation of the effects of the substances tested, at the various concentrations, on fibroblast cultures has been expressed as the absolute and percent increase or decrease of the HA expression, with respect to the corresponding control culture, after 48 hours of incubation. The percentage difference increase or decrease of the effects exerted by CA and NAG, at corresponding concentrations, have then been calculated, with evaluation of their potential significance by means of the Student's “t” test.

Data set [7] shares this test system. Nature of the data set: Stimulation of elastin synthesis in human fibroblast cultures (Fastin assay). The data set is classed as cell-based. The settings on record: 24 h. From the text: The scope of the test has been the evaluation and the comparison of the potential stimulation exerted by the test substances on the expression of collagen and elastin in “in vitro” cultures of skin-derived cells, such as fibroblasts. The test in question, even though conducted “in vitro”, can be considered to be predictive of the effects of use of the same substances “in vivo”.
Human fibroblasts, Detroit 551 ATCC CCL III from LGC Promochem (Milan, Italy) have been used.
The substances and concentrations tested have been the same as those already described for stage B of the test on the stimulation of HA expression, i.e.: • CA: 0.66, 1.32, 1.98, 2.64 and 3.3 mg/ml • NAG: 0.5, 1.0, 1.5, 2.0 and 2.5 mg/ml • ASS: 0.16, 0.32, 0.48, 0.64 and 0.80 mg/ml
Cells have been plated out in 96 well plates, 2500 cells/well for 24 hours in cell growth medium ([…], DMEM)+10% foetal calf serum (FCS). Fresh culture medium, enriched with just 5% FCS and containing the substances to be tested, so as to reach the final concentrations desired, has then been added. The samples have been dissolved directly in the culture medium. Each sample has been tested in duplicate and the experiments have been repeated twice. The parameters of interest have been determined after 24 hours on separate plates. Untreated cell cultures have been used as controls.
Elastin has been assayed using a commercially available test (Fastin™, biodye science). The assay is based on the interaction of 5,10,15,20-tetraphenyl-21,23-porphyrin with elastin molecules.
De novo elastin synthesis has been evaluated in the culture medium following treatment with the test substances, following the protocol provided with the test, and by using the calibration curve obtained employing the elastin standard contained in the kit itself.
Evaluation of the effects of the substances tested, at the various concentrations, on fibroblast cultures, has been expressed as the absolute and percent increase or decrease of collagen and elastin expression, with respect to the corresponding control culture, after 24 hours of incubation.
The percentage difference increase or decrease of the effects exerted by CA and NAG, at corresponding concentrations, have then been calculated, with consequent evaluation of their potential statistical significance by means of the test Student “t” test.

Turning to `CCCCCCCCCCCCOS(=O)(=O)[O-].[Na+]` [SDS, sodium dodecylsulphate], the “mortality of the keratinocyte culture” value in data set [1] was 94.28%. In data set [2], this molecule returned a cell mortality of 96.05%.

Turning to Hyaluronic acid [HA], the “effect on DNA synthesis” value in the data set with mouse skin fibroblasts is recorded as “causes transient DNA synthesis”. Moreover, the “half-life in the skin” value in data set [3] was “less than 24 hours”. Moreover, the “expression of extracellular matrix metalloproteases” value in data set [4] is “clear increase”.

As to anhydrous sodium sulphate [ASS], the “Collagen (%) (Diff. from baseline)” value in data set [5] (ASS 0.16 mg/ml) is recorded as −8.45%; in data set [5] (ASS 0.32 mg/ml), “+3.93%”; in data set [5] (ASS 0.48 mg/ml) it was “+1.77%”; in data set [5] (ASS 0.64 mg/ml) it was “+9.03%”; in data set [5] (ASS 0.80 mg/ml) it was −3.34%. In addition, the “Collagen(μg/ml) (Diff. from baseline)” value was -0.43 µg/mL in data set [5] (ASS 0.16 mg/ml); “+0.20 μg/ml” in data set [5] (ASS 0.32 mg/ml); “+0.09 μg/ml” in data set [5] (ASS 0.48 mg/ml); “+0.46 μg/ml” in data set [5] (ASS 0.64 mg/ml); -0.17 µg/mL in data set [5] (ASS 0.80 mg/ml). For the same molecule, in data set [5] (ASS alone 0.16-0.80 mg/ml), the “effect on collagen expression (in words)” value was “exerts no type of stimulation or inhibition”. Also, the “HA (%) (Diff. from baseline)” value in data set [6] (ASS 0.16 mg/ml) is on record as “+6.07%”; in data set [6] (ASS 0.32 mg/ml), “+7.99%”; in data set [6] (ASS 0.48 mg/ml), “+9.38%”; in data set [6] (ASS 0.64 mg/ml), −25.87%; in data set [6] (ASS 0.80 mg/ml), “+1.91%”. The “HA(ng/well) (Diff. from baseline)” value in data set [6] (ASS 0.16 mg/ml) is 35 ng/well; in data set [6] (ASS 0.32 mg/ml), 46 ng/well; in data set [6] (ASS 0.48 mg/ml), 54 ng/well; in data set [6] (ASS 0.64 mg/ml) it was −149 ng/well; in data set [6] (ASS 0.80 mg/ml) it was 11 ng/well. Also, the “effect on HA expression (in words)” value in data set [6] (ASS alone 0.16-0.80 mg/ml) is recorded as “exerts no stimulation nor inhibition”. Besides, the “Elastin (%) (Diff. from baseline)” value was −2.33% in data set [7] (ASS 0.16 mg/ml); “+1.98%” in data set [7] (ASS 0.32 mg/ml); “+9.75%” in data set [7] (ASS 0.48 mg/ml); −3.81% in data set [7] (ASS 0.64 mg/ml); −3.39% in data set [7] (ASS 0.80 mg/ml). For the same molecule, the “Elastin (μg/ml) (Diff. from baseline)” value was -0.11 µg/mL in data set [7] (ASS 0.16 mg/ml); “+0.07 μg/ml” in data set [7] (ASS 0.32 mg/ml); “+0.46 μg/ml” in data set [7] (ASS 0.48 mg/ml); -0.18 µg/mL in data set [7] (ASS 0.64 mg/ml); “+0.16 μg/ml” in data set [7] (ASS 0.80 mg/ml). In addition, the “Elastin (μg/ml) (Mean ± st. dev.)” value was 4.61 ± 0.41 µg/mL in data set [7] (ASS 0.16 mg/ml); 4.79 ± 0.44 µg/mL in data set [7] (ASS 0.32 mg/ml); 5.18 ± 0.36 µg/mL in data set [7] (ASS 0.48 mg/ml); 4.54 ± 0.47 µg/mL in data set [7] (ASS 0.64 mg/ml); 4.83 ± 0.30 µg/mL in data set [7] (ASS 0.80 mg/ml). Besides, in data set [7] (ASS alone 0.16-0.80 mg/ml), the “effect on elastin expression (in words)” value is given as “incapable of exerting any effect, either stimulatory or inhibitory”.

Source of the values: US20100028395A1, “COMPOSITIONS CONTAINING N-ACETYLGLUCOSAMINE FOR USE IN DERMO-COSMETOLOGY AND AESTHETIC MEDICINE” (ROTTAPHARM S.P.A., priority 2007, published 2010).
